Experimental data from ChEMBL document CHEMBL5365500, “Development and Antibacterial Properties of 4-[4-(Anilinomethyl)-3-phenylpyrazol-1-yl]benzoic Acid Derivatives as Fatty Acid Biosynthesis Inhibitors” (J Med Chem, 2023).
Values after ≈ are worked out from the molar mass of the structure shown. Active and inactive are the calls of the source. The rule behind the calls is not given here.

Experiments:
[1] = system: Staphylococcus epidermidis; experiment: Antimicrobial activity against antibiotic-resistant Staphylococcus epidermidis ATCC 700296 assessed as inhibition of visible growth measured after 20 to 24 hrs incubation by CLSI method; type: functional; details: time 20-24 hrs
Staphylococcus aureus [2] = experiment: Antimicrobial activity against antibiotic-resistant Staphylococcus aureus ATCC 33591 assessed as inhibition of visible growth measured after 20 to 24 hrs incubation by CLSI method; type: functional; details: time 20-24 hrs
Staphylococcus aureus [3] = experiment: Antimicrobial activity against Staphylococcus aureus ATCC 25923 assessed as inhibition of visible growth measured after 20 to 24 hrs incubation by CLSI method; type: functional; details: time 20-24 hrs
Bacillus subtilis = experiment: Antimicrobial activity against antibiotic-resistant Bacillus subtilis ATCC 6623 assessed as inhibition of visible growth measured after 20 to 24 hrs incubation by CLSI method; type: functional; details: time 20-24 hrs
Staphylococcus aureus [4] = experiment: Antimicrobial activity against antibiotic-resistant Staphylococcus aureus ATCC 700699 assessed as inhibition of visible growth measured after 20 to 24 hrs incubation by CLSI method; type: functional; details: time 20-24 hrs
Staphylococcus aureus [5] = experiment: In vivo antimicrobial activity against Staphylococcus aureus UAMS-1 infected in Caenorhabditis elegans AU37 nematodes assessed as viability of nematodes incubated for 5 days by susceptibility test; type: functional; details: UAMS-1, 120 h, time 5 day
Enterococcus faecium = experiment: Antimicrobial activity against antibiotic-resistant Enterococcus faecium ATCC 700221 assessed as inhibition of visible growth measured after 20 to 24 hrs incubation by CLSI method; type: functional; details: time 20-24 hrs
Staphylococcus aureus [6] = experiment: In vivo antimicrobial activity against Staphylococcus aureus USA300 infected in Caenorhabditis elegans AU37 nematodes assessed as viability of nematodes incubated for 5 days by susceptibility test; type: functional; details: USA300, 120 h, time 5 day
Enterococcus faecalis [7] = experiment: Antimicrobial activity against antibiotic-resistant Enterococcus faecalis ATCC 51299 assessed as inhibition of visible growth measured after 20 to 24 hrs incubation by CLSI method; type: functional; details: time 20-24 hrs
Staphylococcus aureus [8] = experiment: Antimicrobial activity against antibiotic-resistant Staphylococcus aureus ATCC 33592 assessed as inhibition of visible growth measured after 20 to 24 hrs incubation by CLSI method; type: functional; details: time 20-24 hrs
Staphylococcus aureus [9] = experiment: Antimicrobial activity against antibiotic-resistant Staphylococcus aureus ATCC BAA-2312 assessed as inhibition of visible growth measured after 20 to 24 hrs incubation by CLSI method; type: functional; details: time 20-24 hrs
Enterococcus faecalis [10] = experiment: Antimicrobial activity against antibiotic-susceptible Enterococcus faecalis ATCC 29212 assessed as inhibition of visible growth measured after 20 to 24 hrs incubation by CLSI method; type: functional; details: time 20-24 hrs
Staphylococcus aureus [11] = experiment: In vivo antimicrobial activity against Staphylococcus aureus Newman infected in Caenorhabditis elegans AU37 nematodes assessed as viability of nematodes incubated for 5 days by susceptibility test; type: functional; details: 120 h, time 5 day
[12] = system: Panel NCI-60 (60 carcinoma cell lines); experiment: Cytotoxicity against human panel NCI-60 (60 carcinoma cell lines)cells assessed as cell viability at 10 uM measured after 24 hrs by resazurin assay; type: functional, cell-based
Staphylococcus aureus [13] = experiment: Antimicrobial activity against Staphylococcus aureus ATCC 25923 assessed as eradication of biofilm measured after 24 hrs incubation by Calgary method; type: functional
Staphylococcus aureus [14] = experiment: Antimicrobial activity against methicilline-resistant Staphylococcus aureus ATCC 700699 persisters assessed as bacterial killing at 32 time of MIC concentration measured for every 2 hrs upto 8 hrs by Persisters time course assay; type: functional, organism-based
Enterococcus faecalis [15] = experiment: Antimicrobial activity against antibiotic-susceptible Enterococcus faecalis ATCC 29212 assessed as eradication of biofilm measured after 24 hrs incubation by Calgary method; type: functional
Staphylococcus aureus [16] = experiment: Bactericidal activity in antibiotic-resistant Staphylococcus aureus ATCC 700699 assessed as reduction in viable cell count at 4 times of MIC measured upto 24 hrs by time kill assay; type: functional, organism-based

| Structure (SMILES) | MIC [1] [µg/mL] | MIC (Staphylococcus aureus [2]) [µg/mL] | MIC (Staphylococcus aureus [3]) [µg/mL] | MIC (Bacillus subtilis) [µg/mL] | MIC (Staphylococcus aureus [4]) [µg/mL] | MIC (Staphylococcus aureus [5]) [µg/mL] | MIC (Enterococcus faecium) [µg/mL] | MIC (Staphylococcus aureus [6]) [µg/mL] | MIC (Enterococcus faecalis [7]) [µg/mL] | MIC (Staphylococcus aureus [8]) [µg/mL] | MIC (Staphylococcus aureus [9]) [µg/mL] | MIC (Enterococcus faecalis [10]) [µg/mL] | MIC (Staphylococcus aureus [11]) [µg/mL] | Activity [12] | MBEC (Staphylococcus aureus [13]) [µg/mL] | Activity (Staphylococcus aureus [14]) | MBEC (Enterococcus faecalis [15]) [µg/mL] | Activity (Staphylococcus aureus [16]) |
| --- | --- | --- | --- | --- | --- | --- | --- | --- | --- | --- | --- | --- | --- | --- | --- | --- | --- | --- |
| O=C(O)c1ccc(-n2cc(CNc3cc(Cl)cc(C(F)(F)F)c3)c(-c3ccc(F)c(F)c3)n2)cc1 | 2 (≈ 3.94 µM) | 0.5 (≈ 0.985 µM) | 1 (≈ 1.97 µM) | 0.5 (≈ 0.985 µM) | 1 (≈ 1.97 µM) | 1 (≈ 1.97 µM) | 2 (≈ 3.94 µM) | 1 (≈ 1.97 µM) | 2 (≈ 3.94 µM) | 1 (≈ 1.97 µM) | 0.5 (≈ 0.985 µM) | 4 (≈ 7.88 µM) | 0.5 (≈ 0.985 µM) |  |  |  |  |  |
| Cc1ccc(NCc2cn(-c3ccc(C(=O)O)cc3)nc2-c2ccc(F)cc2)cc1Cl | 32 (≈ 73.4 µM) | 16 (≈ 36.7 µM) | 32 (≈ 73.4 µM) | 8 (≈ 18.4 µM) | 4 (≈ 9.18 µM) |  | 16 (≈ 36.7 µM) |  | > 32 | 16 (≈ 36.7 µM) | 16 (≈ 36.7 µM) | > 32 |  |  |  |  |  |  |
| O=C(O)c1ccc(-n2cc(CNc3ccccc3)c(-c3ccc(F)cc3)n2)cc1 | 32 (≈ 82.6 µM) | 32 (≈ 82.6 µM) | 32 (≈ 82.6 µM) | 16 (≈ 41.3 µM) | 32 (≈ 82.6 µM) |  | > 32 |  | > 32 | 32 (≈ 82.6 µM) | 32 (≈ 82.6 µM) | > 32 |  |  |  |  |  |  |
| O=C(O)c1ccc(-n2cc(CNc3cc(Br)cc(C(F)(F)F)c3)c(-c3cccc(F)c3)n2)cc1 | 4 (≈ 7.49 µM) | 1 (≈ 1.87 µM) | 2 (≈ 3.74 µM) | 1 (≈ 1.87 µM) | 2 (≈ 3.74 µM) | 1 (≈ 1.87 µM) | 2 (≈ 3.74 µM) | 1 (≈ 1.87 µM) | 4 (≈ 7.49 µM) | 2 (≈ 3.74 µM) | 1 (≈ 1.87 µM) | 4 (≈ 7.49 µM) | 1 (≈ 1.87 µM) | inactive | 4 | Active | 4 | Active |
| O=C(O)c1ccc(-n2cc(CNc3cc(Cl)cc(Cl)c3)c(-c3ccc(F)c(F)c3)n2)cc1 | 2 (≈ 4.22 µM) | 0.5 (≈ 1.05 µM) | 1 (≈ 2.11 µM) | 0.5 (≈ 1.05 µM) | 2 (≈ 4.22 µM) |  | 2 (≈ 4.22 µM) |  | 8 (≈ 16.9 µM) | 2 (≈ 4.22 µM) | 1 (≈ 2.11 µM) | 4 (≈ 8.43 µM) |  |  |  |  |  |  |
| O=C(O)c1ccc(-n2cc(CNc3ccc(Oc4ccccc4)cc3)c(-c3cccc(F)c3)n2)cc1 | 8 (≈ 16.7 µM) | 2 (≈ 4.17 µM) | 4 (≈ 8.34 µM) | 2 (≈ 4.17 µM) | 4 (≈ 8.34 µM) |  | 4 (≈ 8.34 µM) |  | 8 (≈ 16.7 µM) | 4 (≈ 8.34 µM) | 2 (≈ 4.17 µM) | 8 (≈ 16.7 µM) |  |  |  |  |  |  |
| O=C(O)c1ccc(-n2cc(CNc3ccc(Br)c(Cl)c3)c(-c3ccc(F)c(F)c3)n2)cc1 | 2 (≈ 3.86 µM) | 0.5 (≈ 0.964 µM) | 1 (≈ 1.93 µM) | 2 (≈ 3.86 µM) | 2 (≈ 3.86 µM) |  | 4 (≈ 7.71 µM) |  | 4 (≈ 7.71 µM) | 2 (≈ 3.86 µM) | 1 (≈ 1.93 µM) | 4 (≈ 7.71 µM) |  |  |  |  |  |  |
| O=C(O)c1ccc(-n2cc(CNc3cc(F)c(F)c(F)c3)c(-c3ccc(F)c(F)c3)n2)cc1 | 16 (≈ 34.8 µM) | 4 (≈ 8.71 µM) | 8 (≈ 17.4 µM) | 4 (≈ 8.71 µM) | 8 (≈ 17.4 µM) |  | 8 (≈ 17.4 µM) |  | > 32 | 8 (≈ 17.4 µM) | 8 (≈ 17.4 µM) | > 32 |  |  |  |  |  |  |
